Data set [1] in a line: Toxicity of the ALK vaccine in HLA-A*02:01 and HLA-B*07:02 transgenic mice. The data set is classed as in vivo, mouse. The following applies: for toxicity in vaccinated mice: HLA-A*02:01 (AMLDLLHVA) and HLA-B*07:02 (IVRCIGVSL) transgenic mice, CDN adjuvant; for CD8^+ T cells in the hypothalamus region / H&E and pan-HLA immunohistochemistry staining of the hypothalamus region / weight gain: mouse, in vivo. The text has this:
Transgenic mice (HLA-A*02:01 and HLA-1B*07:02) were vaccinated as shown in the schematic in FIG. 18A with either […] (SEQ ID NO: 7) or […] (SEQ ID NO: 4) peptides, respectively, and cyclic dinucleotides (CDN) adjuvant. Weight measurements were taken at discrete time points. Next, splenocytes were isolated and assayed and brain tissue was sectioned and imaged (FIG. 18C).

In data set [2] the test system is ALK-specific CD8+ T cells. Description: Vaccination of HLA B*07:02 transgenic mice, IFN-γ ELISPOT of splenocytes. The following applies: short and long peptide groups pooled, of 12 mice. The class given is in vivo, mouse. The source says: Transgenic mice expressing the human HLA B*07:02 were vaccinated with different peptides containing the core epitopes […] (SEQ ID NO: 4) or […] (SEQ ID NO: 3): […] (SEQ ID NO: 4) (IVRshort), […] (SEQ ID NO: 1) (IVRlong), […] (SEQ ID NO: 3) (RPRshort), […] (SEQ ID NO: 2) (RPRlong). ALK-specific CD8+ T cells responses were detected in 12/12 (100%) mice vaccinated with either the IVRshort peptide or the IVRlong peptide and in 6/12 (50%) of mice vaccinated with either the PRPshort peptide or the RPRlong (FIG. 7D). Finally, ALK-specific CD8+ T cells responses were also detected in peripheral blood mononuclear cells (PBMCs) from 3/6 (50%) ALK+ NSCLC patients when stimulated with the […] (SEQ ID NO: 4) peptide but not with the […] (SEQ ID NO: 3) peptide (FIGS. 7E and 16B; Tables 6-7). Overall, four immunogenic ALK peptides in the context of the HLA A*02:01 and B*07:02 alleles were identified by mass spectrometry that can pave the way toward the design of a human ALK vaccine.
The interferon-γ release enzyme-linked immune absorbent spot (ELISPOT) assay was performed using a commercial kit (Mouse IFN-γ ELISPOT, Mabtech, Stockholm, Sweden) according to the manufacturer's instructions. Briefly, the ELISPOT plate was prepared in sterile conditions and washed with sterile PBS (200 μL/well) for 5 times. Consecutively, the plate was conditioned with fresh DMEM medium (200 μL/well) contained 10% of the same fetal bovine serum used for the splenocytes suspension and incubated for 30 minutes at room temperature. After incubation, the medium was discarded and 2.5×10^5 splenocytes were plated in each well together with the appropriate stimuli. The plate was incubated over/night at 37° C. in humidified conditions with 5% C02. The day after, cells were discarded, and the plate was washed 5 times with PBS. Biotinylated detection anti-IFN-γ mAb (1 μg/mL) was added into the wells, followed by 2 hours of incubation at room temperature. […] All plates were evaluated by a computer assisted ELISPOT reader (CTL Immunospot analyzer, OH, USA).

Data set [3] concerns splenocytes isolated from mice vaccinated with ALK-DNA vaccine. As to the kind of experiment: IFN-γ ELISPOT screening of synthetic long peptides on splenocytes of ALK-DNA vaccinated mice. Conditions: ALK-DNA vaccine group, average ±SEM. The class given is cell-based, mouse. The method, then: Despite the known immunogenicity of the ALK protein, the data imply that ALK^+ mouse lung tumors induce an immune response insufficient to be activated by immune checkpoint inhibitor (ICI) treatment. Therefore, it was decided to directly investigate anti-ALK immune responses during ICI treatment by identifying the specific ALK peptides that induce T-cell mediated immune responses in mouse models. To identify the ALK-specific T-cell epitopes, an in vitro peptide screening was performed. A set of 21 overlapping synthetic long peptides (SLP), that encompassed the ALK cytoplasmic domain (FIG. 9A; Table 1), was incubated with splenocytes isolated from mice vaccinated with a vector encoding most of the ALK cytoplasmic domain (ALK-DNA vaccine) as previously described in Chiarle R, Martinengo C, Mastini C, Ambrogio C, D'Escamard V, Fori G, et al. The anaplastic lymphoma kinase is an effective oncoantigen for lymphoma vaccination.
The interferon-γ release enzyme-linked immune absorbent spot (ELISPOT) assay was performed using a commercial kit (Mouse IFN-γ ELISPOT, Mabtech, Stockholm, Sweden) according to the manufacturer's instructions. Briefly, the ELISPOT plate was prepared in sterile conditions and washed with sterile PBS (200 μL/well) for 5 times. […] All plates were evaluated by a computer assisted ELISPOT reader (CTL Immunospot analyzer, OH, USA).

For data set [4], the system named is Ad-EA mice (mEml4-Alk rearranged lung tumor). As to the kind of experiment: Lung tumor volume by MRI and survival in Ad-EA mice. The following applies: crizotinib 40 mg/kg or lorlatinib 2 mg/kg, MRI. The data set is classed as in vivo, mouse.
Description: EML4-ALK transgenic (Tg) mice, which express the human EML4-ALK (E13;A20, human variant 1) driven by the SP-C promoter (henceforth referred as hEML4-ALK Tg mice), and BALB/c mice infected intratracheally with adenovirus carrying the CRISPR/Cas9 system to induce in vivo the Eml4-Alk rearrangement (E14;A20, mouse variant 1) (henceforth referred as Ad-EA mice). […] In these models, magnetic resonance imaging (MRI) (FIG. 1B) allowed precise cohort stratification and tumor follow-up.
Anatomical T2-weighted coronal images were acquired with a respiratory-triggered multislice fast spin echo RARE sequence (TR=4 s, TE=4.5 ms, Rare Factor (RF)=16, FOV=30 mm^2, Matrix=256×256, slices=16-20, slice thickness=1 mm, 2 averages, providing an in-plane spatial resolution of 117 μm) with a 7T MRI (Bruker Advance III, Ettlingen, Germany) scanner equipped with a quadrature 1H coil. Animals were anesthetized by intraperitoneal injection of a combination of ROMPUN® (Bayer, 5 mg/kg) and ZOLETIL 100® (Laboratoires Virbac, 20 mg/kg); breathing was monitored during acquisition of the MR images with a respiratory sensor (SA Instruments, Inc.). Tumor volumes and numbers of masses calculations were performed by manual segmentation (slice by slice contouring) with ITK-SNAP software (www.itksnap.org).
Syngeneic mice models transplanted with tumor cells were treated intraperitoneally with 200 μg of anti-PD-1 and/or anti-CTLA-4 (clone 9D9, Bioxcell), on days 3, 6, and 9 post-tumor transplantation (3 injections/per mouse).
In data set [5] the test system is CD8^+ T cells from NSCLC patients. Description: IFN-γ ELISPOT of patient CD8^+ T cells expanded with ALK peptides. The class given is cell-based, human. The method, then:
Non-small cell lung cancer (NSCLC) patients, at the Dana-Farber Cancer Institute, consented to an institutional review board (IRB)-approved correlative research protocol that allowed for review of medical records and sample collection. Lung cancer mutation status was determined using standard CLIA-certified clinical assays in the Center for Advanced Molecular Diagnostics at Brigham and Women's Hospital. For each patient, 10 mL of whole blood was collected into K3-EDTA tubes, and peripheral blood mononuclear cells (PBMCs) (peripheral blood mononuclear cells) were isolated with Ficoll-Paque Plus density separation (GE Healthcare), and consequently frozen until use.
Frozen PBMCs from patients with NSCLC were thawed, resuspended in cold RPMI containing 3% of human AB heat-inactivated serum (Sigma Aldrich), and cultured in a T-175 culture flask for 50 min. at 37° C. in 5% C02 to induce the attachment of CD14^+ monocytes to the plastic. The remaining floating PBMCs were removed with gentle washes of PBS and warm media. Monocytes were then cultured in RPMI containing 3% of human AB heat-inactivated serum, 2% Penicillin/Streptomycin, 1% Glutamine, and 25 nM HEPES with GM-CSF (120 ng/mL, Preprotech) and IL-4 (70 ng/mL, Preprotech). Fresh GM_CSF and IL-4 were added on days 3 and 5. On day 6, Poly I:C (30 μg/mL, Sigma Aldrich) was added for 24 hours to induce DCs maturation.
B cells were expanded using the CD40 system (68,69). Briefly, NIH-3T3-CD40L cells were irradiated (9600 rads) and plated in a 6 well plate (400.000 cells/well) without Gentamycin. The following day, 8×10^6 PBMCs were resuspended in 4 mL of IMDM (Glutamine, Hepes, Gibco) containing 10% human AB serum heat-inactivated (Sigma Aldrich), Transferrin (50 μg/ml, Lonza), Insulin (5 μg/ml, BioXtra), Cyclosporine A (5.5×10^−7M, Sigma Aldrich), IL-4 (2 ng/ml, Preprotech) and Gentamycin (15 μg/ml, Gibco), and co-cultured with the irradiated NIH-3T3-CD40L for 5 days. PBMCs were then counted and cultured at the same concentration together with newly irradiated NIH-3T3-CD40L for 3 more days. After 12 days 95% of the cells were CD19^+ and could be expanded similarly every 3-4 days at a concentration of 10^6/mL. B cells were always used after 15 days of culture.
CD8^+ T cells were purified using magnetic beads (CD8^+ T cell isolation Kit, Miltenyi) and co-cultured with DCs (20:1; around 10^6 CD8^+ T cells:50.000 DCs) in AIM V media (Gibco) with 5% human AB heat-inactivated serum (Sigma Aldrich), 20 units/mL IL-2 (Preprotech) and 10 ng/mL IL-7 (Preprotech). Before co-culture, DCs were pulsed with the 10 μg/mL of the desired peptide in AIM V media without serum at 37° C. in 5% CO2. Fresh IL-2 and IL-7 were added every 3-4 days. After 7 days, 3-4 million PBMCs CD8^+ T cells were co-cultured with peptide-pulsed DCs and cytokines (20-40:1 ratio). 3rd and 4th stimulation stimulations were done using 4-5 million CD8^+ T cells and peptide-pulsed irradiated B cells (ratio 4:1, 3000 rads) and fresh IL2 and IL7 (days 14 and 21). CD8^+ T-cell responses were then evaluated in an IFN-γ-ELISPOT assay (Mabtech) using peptide-pulsed B cells (1:1 ratio) as target cells. CD8^+ T cells were purified the day before the ELISPOT assay and rested overnight in media without cytokines. The ELISPOT was performed with FBS heat inactivated as recommended by the manufacturer. When the human material was limited, PBMCs or B0 cells were used in the first round of stimulation.

The test system of data set [6] is ALK-rearranged (ALK^+) NSCLC. The following applies: first-line treatment; cited from earlier work.

Ends that are not written are not given here.

For the compound IVRCIGVSL, in data set [1], the “toxicity in vaccinated mice” value is “no detectable toxicity”; the “CD8^+ T cells in the hypothalamus region” value is listed as “Not a significant amount”; the “H&E and pan-HLA immunohistochemistry staining of the hypothalamus region” value is “healthy tissue”; the weight gain result is given as “the same as the control mice”.

FNHQNIVRCIGVSL [IVRlong]: the “mice with ALK-specific CD8+ T cells responses detected” value in data set [2] is 100%.

On to “GYQQQGLPLEAATAPGAGHYEDTILKSKNSMNQPGP [SLP21]”, for which the “number of IFN-γ-spots” value in data set [3] is on record as “Weaker responses”.

Consider `C[C@@H](Oc1cc(-c2cnn(C3CCNCC3)c2)cnc1N)c1c(Cl)ccc(F)c1Cl` [crizotinib], for which, in data set [4], the “tumor response at the end of treatment” value was “stabilized tumors”.

Regarding RPRPSQPSSL, the “Average Spots Forming Units (2 wells)/20 000 CD8^+ T cells” value (“Average Spots Forming Units” for short) is on record as 5.5 Spots Forming Units/20 000 CD8 in data set [5] (Patient 1 (ALK), IVRCIGVSL expanded); 4.5 Spots Forming Units/20 000 CD8 in data set [5] (Patient 1 (ALK), RPRPSQPSSL expanded); 27.5 Spots Forming Units/20 000 CD8 in data set [5] (Patient 2 (ALK), IVRCIGVSL expanded); 0 Spots Forming Units/20 000 CD8 in data set [5] (Patient 2 (ALK), RPRPSQPSSL expanded); 6.5 Spots Forming Units/20 000 CD8 in data set [5] (Patient 3 (ALK), IVRCIGVSL expanded); 3 Spots Forming Units/20 000 CD8 in data set [5] (Patient 3 (ALK), RPRPSQPSSL expanded). The “Average Spots Forming Units” value is recorded as 2 Spots Forming Units/20 000 CD8 in data set [5] (Patient 4 (ALK), RPRPSQPSSL expanded); 1 Spots Forming Units/20 000 CD8 in data set [5] (Patient 5 (KRASG12V), RPRPSQPSSL expanded); 1.5 Spots Forming Units/20 000 CD8 in data set [5] (Patient 6 (EGFR del exon19), IVRCIGVSL expanded); 10 Spots Forming Units/20 000 CD8 in data set [5] (Patient 6 (EGFR del exon19), RPRPSQPSSL expanded); 1 Spots Forming Units/20 000 CD8 in data set [5] (Patient 7 (KRASG12D), IVRCIGVSL expanded); 3 Spots Forming Units/20 000 CD8 in data set [5] (Patient 7 (KRASG12D), RPRPSQPSSL expanded). Besides, the “Average Spots Forming Units” value is given as 2 Spots Forming Units/20 000 CD8 in data set [5] (Patient 8 (EGFR del exon19), IVRCIGVSL expanded) and 10 Spots Forming Units/20 000 CD8 in data set [5] (Patient 8 (EGFR del exon19), RPRPSQPSSL expanded). In data set [2], the “mice with ALK-specific CD8+ T cells responses detected” value was determined as 50%.

Regarding GGDLKSFLRETRPRPSQPSSLAM [RPRlong], the “mice with ALK-specific CD8+ T cells responses detected” value in data set [2] was determined as 50%.

As to `COc1cc(N2CCC(N3CCN(C)CC3)CC2)ccc1Nc1ncc(Cl)c(Nc2ccccc2P(C)(C)=O)n1` [brigatinib], the “time to disease progression in most patients” value in data set [6] is reported as “three”.

Consider “LTANMKEVPLFRLRHFPCGNVNYGYQQQGLPLEAAT [SLP20]”, for which, in data set [3], the “number of IFN-γ-spots” value is “Weaker responses”.

Consider AMLDLLHVA, for which, in data set [1], the “toxicity in vaccinated mice” value is given as “no detectable toxicity”; the “CD8^+ T cells in the hypothalamus region” value is “Not a significant amount”; the “H&E and pan-HLA immunohistochemistry staining of the hypothalamus region” value was “healthy tissue”; the weight gain result is listed as “the same as the control mice”.
